In the NIST ThermoML archive (doi:10.1016/j.jct.2006.01.011):

Key:
[1] = 293.15 K, 101.33 kPa, Liquid; for viscosity: Capillary tube (Ostwald / Ubbelohde) method
[2] = refractive index (Na D-line) (dimensionless); conditions: 293.15 K; 101.33 kPa; Liquid; Standard Abbe refractometry
[3] = wn = mass fraction of the nth substance listed; conditions: 293.15 K, 101.33 kPa, Liquid; for viscosity: Capillary tube (Ostwald / Ubbelohde) method; for mass density: Vibrating tube method
[4] = cn = amount concentration of the nth substance listed, in mol/dm3; conditions: 293.15 K, 101 kPa, Liquid; for viscosity: Capillary tube (Ostwald / Ubbelohde) method; for electrical conductivity: Frequency=0.001 MHz, digital bridge-type conductivity meter; for mass density: Vibrating tube method

OCCO [1,2-ethanediol]
Conditions | refractive index | viscosity [mPa·s]
[1] | – | 20.81
[2] | 1.4319 | –

Conditions | mass density [kg/m3]
[1], Vibrating tube method | 1113.23

OCCO [1,2-ethanediol] + O
[3]
Conditions | mass density [kg/m3] | viscosity [mPa·s]
w1 = 0.1 | 1011.1 | 1.293
w1 = 0.2 | 1024.49 | 1.671
w1 = 0.3 | – | 2.177
w1 = 0.4 | 1049.89 | 2.837
w1 = 0.5 | 1062.42 | 3.558
w1 = 0.6 | – | 4.724
w1 = 0.7 | 1085.2 | 6.36
w1 = 0.8 | 1095.34 | 8.003
w1 = 0.9 | 1103.7 | 14

O [water]
Conditions | viscosity [mPa·s]
[1] | 1.008

O [water] + OCCO
Conditions | viscosity [mPa·s]
[3], w2 = 0 | 1.008

O=S(=O)([O-])[O-].[Zn+2] [zinc sulfate] + O
[4]
Conditions | electrical conductivity [S/m] | mass density [kg/m3] | viscosity [mPa·s]
c1 = 5e-05 | 0.00119 | 998.22 | –
c1 = 0.00011 | 0.00229 | 998.23 | –
c1 = 0.00019 | 0.00391 | 998.25 | –
c1 = 0.00042 | 0.0084 | 998.29 | –
c1 = 0.00063 | 0.01218 | 998.32 | –
c1 = 0.00083 | 0.0154 | 998.36 | –
c1 = 0.00101 | 0.01833 | 998.39 | –
c1 = 0.00127 | 0.02201 | 998.41 | –
c1 = 0.0084 | – | 999.63 | 1.015
c1 = 0.0194 | – | 1001.48 | 1.022
c1 = 0.0403 | – | 1004.95 | 1.036
c1 = 0.0545 | – | 1007.37 | 1.045
c1 = 0.0714 | – | 1009.43 | 1.054
c1 = 0.0795 | – | 1011.4 | 1.062
c1 = 0.0979 | – | 1014.39 | 1.074
c1 = 0.1391 | – | 1021.1 | 1.103
c1 = 0.1756 | – | 1027.12 | 1.127
c1 = 0.1998 | – | 1030.93 | 1.144
